Reference: patent US12448388B2, “PRMT5 inhibitors and uses thereof” (Gilead Sciences, Inc., priority 2023, dated 2025)

The compounds below were run on HCT116 MTAP-deleted cell lines (assay: Cell viability assay (CellTiter-Glo, 7 days), HCT116 MTAP-deleted). Conditions: Homo sapiens, HCT-116; cell viability assay, HCT116 MTAP-deleted; class symbols; read-out: CC50.
Assay type: cell-based
Method: Control compounds were analyzed in parallel each time for quality control. In Brief, on Day -1, a serial dilution of stock compounds in DMSO was performed using BioMek liquid handlers and dispensed using Echo acoustic dispenser into 384 well plates. Both tool compounds and sample compounds were spotted in the same plate for a dose response of PRMT5 inhibitors. Compound plates were stored as frozen until the cells were ready for seeding. […] After equilibrating the plate in room temperature, the cells were incubated for 7 days inside the sealed incubator set at 37° C. with 90% humidity and 5% CO2. On Day 7, the viability of cells was measured using a CTG assay kit (CellTitre-Glo;Promega cat no. G7573). Shortly, 40 μl per well of luminescent cell viability assay reagent were dispensed using EL460 liquid dispenser 5 μl cassette. CTG luminescence signal was measured using an EnVision plate reader (PerkinElmer) in accordance with manufacturer's instruction. […] Selectivity with * is artificially high due to limited solubility of the compound hampering accurate measurement of WT CC50.

| Structure (SMILES) | CC50 |
| --- | --- |
| C#Cc1ccc2c(c1)OC[C@H]2N(C)C(=O)c1cc2c(cc1F)nc(N)c1cncn12 [Ff-506, (S)-4-amino-N-(6-ethynyl-2,3-dihydrobenzofuran-3-yl)-7-fluoro-N-methylimidazo[1,5-a]quinoxaline-8-carboxamide] | < 100 nM |
| Nc1nc2cc(F)c(C(=O)N3CCCCC4Oc5cc(C(F)(F)F)ccc5C43)cc2n2cncc12 (stereo not shown) [Ff-432, (4-amino-7-fluoro-imidazo[1,5-a]quinoxalin-8-yl)-[8-(trifluoromethyl)-2,3,4,5,5a,10b-hexahydrobenzofuro[3,2-b]azepin-1-yl]methanone] | < 100 nM |
| CC(C)N(Cc1ccc(-c2ccc[nH]c2=O)cc1F)C(=O)c1cc2c(cc1F)nc(N)c1cncn12 [Ff-594, 4-amino-7-fluoro-N-(2-fluoro-4-(2-oxo-1,2-dihydropyridin-3-yl)benzyl)-N-isopropylimidazo[1,5-a]quinoxaline-8-carboxamide] | 100 to 1000 nM |
| CN(C(=O)c1cc2c(cc1F)nc(N)c1cncn12)[C@@H]1CCc2cc([C@@H]3C[C@H]3C#N)ccc21 [Ff-434, Trans-4-amino-N-[(1R)-5-(2-cyanocyclopropyl)indan-1-yl]-7-fluoro-N-methyl-imidazo[1,5-a]quinoxaline-8-carboxamide] | < 100 nM |
| CN(C(=O)c1cc2c(cc1F)nc(N)c1cncn12)[C@@H]1COc2cc(C#CC34CCC(CC3)OC4)ccc21 [Ff-523, (S)—N-(6-((2-oxabicyclo[2.2.2]octan-4-yl)ethynyl)-2,3-dihydrobenzofuran-3-yl)-4-amino-7-fluoro-N-methylimidazo[1,5-a]quinoxaline-8-carboxamide] | 100 to 1000 nM |
| CN(C(=O)c1cc2c(cc1F)nc(N)c1cncn12)C1COc2cc(Cl)c(Br)cc21 (stereo not shown) [Ff-608, 4-amino-N-(5-bromo-6-chloro-2,3-dihydrobenzofuran-3-yl)-7-fluoro-N-methylimidazo[1,5-a]quinoxaline-8-carboxamide] | < 100 nM |
| CN(C(=O)c1cc2c(cc1F)nc(N)c1cncn12)C1COc2cc(Br)c(F)cc21 (stereo not shown) [Ff-560, 4-amino-N-(6-bromo-5-fluoro-2,3-dihydrobenzofuran-3-yl)-7-fluoro-N-methylimidazo[1,5-a]quinoxaline-8-carboxamide] | < 100 nM |
| CN(C(=O)c1cc2c(cn1)nc(N)c1cncn12)C1CCc2cc(C(F)(F)F)ccc21 (stereo not shown) [Ff-436, 7-amino-N-methyl-N-[5-(trifluoromethyl)indan-1-yl]-2,4,8,11-tetrazatricyclo[7.4.0.02,6]trideca-1(13),3,5,7,9,11-hexaene-12-carboxamide] | < 100 nM |

Same assay, conditions: Homo sapiens, HCT-116; cell viability, HCT116 MTAP-deleted; class symbols; read-out: CC50

| Structure (SMILES) | CC50 |
| --- | --- |
| Cc1ncn2c1c(N)nc1cc(Cl)c(C(=O)N3CCC[C@@H]4Oc5nc(C(F)(F)F)ccc5[C@@H]43)cc12 [Ff-364, (4-amino-7-chloro-3-methylimidazo[1,5-a]quinoxalin-8-yl)((4aS,9bS)-7-(trifluoromethyl)-3,4,4a,9b-tetrahydrofuro[2,3-b:4,5-b′]dipyridin-1(2H)-yl)methanone] | < 100 nM |
| CO[C@H]1COCC[C@H]1N(Cc1ccc(C(F)(F)F)cc1F)C(=O)c1cc2c(cc1F)nc(N)c1cncn12 [Ff-274, 4-amino-7-fluoro-N-(2-fluoro-4-(trifluoromethyl)benzyl)-N-((3R,4R)-3-methoxytetrahydro-2H-pyran-4-yl)imidazo[1,5-a]quinoxaline-8-carboxamide] | < 100 nM |
| C[C@@H]1CN(C(=O)c2cc3c(cc2F)nc(N)c2cncn23)[C@H]2c3cc(F)c(C(F)F)cc3C[C@H]2O1 (single isomer, unassigned) [Ff-172] | < 100 nM |
| Nc1nc2cc(F)c(C(=O)N3CCC[C@@H]4Oc5c(ccc(OC(F)(F)F)c5F)[C@@H]43)cc2n2cncc12 [Ff-343, (4-amino-7-fluoroimidazo[1,5-a]quinoxalin-8-yl)((4aS,9bS)-6-fluoro-7-(trifluoromethoxy)-3,4,4a,9b-tetrahydrobenzofuro[3,2-b]pyridin-1(2H)-yl)methanone] | < 100 nM |
| Nc1nc2cc(F)c(C(=O)N3CCO[C@@H]4Cc5cc(-c6cnn(C(F)(F)F)c6)ccc5[C@@H]43)cc2n2cncc12 [Ff-234, (4-amino-7-fluoroimidazo[1,5-a]quinoxalin-8-yl)((4aS,9aR)-7-(1-(trifluoromethyl)-1H-pyrazol-4-yl)-2,3,9,9a-tetrahydroindeno[2,1-b][1,4]oxazin-4(4aH)-yl)methanone] | 100 to 1000 nM |
| Nc1nc2ccc(C(=O)N3CC[C@H]4C[C@@H]3c3ccc(C(F)(F)F)cc34)cc2n2cncc12 (racemic) [Ff-74, (Rac)-(4-aminoimidazo[1,5-a]quinoxalin-8-yl)(7-(trifluoromethyl)-1,3,4,5-tetrahydro-2H-1,5-methanobenzo[c]azepin-2-yl)methanone] | 100 to 1000 nM |
| Cc1ncn2c1c(N)nc1cc(F)c(C(=O)N(C)[C@@H]3COCc4nc(C(F)(F)F)ccc43)cc12 [Ff-303, (S)-4-amino-7-fluoro-N,3-dimethyl-N-(2-(trifluoromethyl)-5,8-dihydro-6H-pyrano[3,4-b]pyridin-5-yl)imidazo[1,5-a]quinoxaline-8-carboxamide] | < 100 nM |
| C[C@H]1CCN(C(=O)c2cc3c(cc2F)nc(N)c2cncn23)[C@@H](c2ccc(C(F)(F)F)cc2)C1 (racemic) [Ff-241, Rac-(4-amino-7-fluoroimidazo[1,5-a]quinoxalin-8-yl)((2R,4S)-4-methyl-2-(4-(trifluoromethyl)phenyl)piperidin-1-yl)methanone] | 100 to 1000 nM |
| C[C@H]1CN(C(=O)c2cc3c(cc2F)nc(N)c2cncn23)[C@H]2c3cc(F)c(OC(F)F)cc3C[C@H]2O1 [Ff-175, (4-amino-7-fluoroimidazo[1,5-a]quinoxalin-8-yl)((2S,4aS,9aR)-7-(difluoromethoxy)-6-fluoro-2-methyl-2,3,9,9a-tetrahydroindeno[2,1-b][1,4]oxazin-4(4aH)-yl)methanone] | < 100 nM |
| Nc1nc2cc(F)c(C(=O)N(Cc3ccc(-c4ccnn4C(F)(F)F)cc3F)C34CC(C3)C4)cc2n2cncc12 [Ff-218, 4-amino-N-(bicyclo[1.1.1]pentan-1-yl)-7-fluoro-N-(2-fluoro-4-(1-(trifluoromethyl)-1H-pyrazol-5-yl)benzyl)imidazo[1,5-a]quinoxaline-8-carboxamide] | < 100 nM |
| CN(C(=O)c1cc2c(cc1F)nc(N)c1cncn12)[C@@H]1COc2cc(-c3cnn(C4COC4)c3)ccc21 [Ff-145, (S)-4-amino-7-fluoro-N-methyl-N-(6-(1-(oxetan-3-yl)-1H-pyrazol-4-yl)-2,3-dihydrobenzofuran-3-yl)imidazo[1,5-a]quinoxaline-8-carboxamide] | < 100 nM |
| CC1(N(Cc2ccc(C(F)(F)F)cc2F)C(=O)c2ccc3nc(N)c4cncn4c3c2)COC1 [Ff-270, 4-amino-N-(2-fluoro-4-(trifluoromethyl)benzyl)-N-(3-methyloxetan-3-yl)imidazo[1,5-a]quinoxaline-8-carboxamide] | 100 to 1000 nM |
| CN(C(=O)c1cc2c(cn1)nc(N)c1cncn12)[C@@H](c1ccc(OC(F)(F)F)cc1F)C(F)F [Fb-12, (S)-4-amino-N-(2,2-difluoro-1-(2-fluoro-4-(trifluoromethoxy)phenyl)ethyl)-N-methylimidazo[1,5-a]pyrido[3,4-e]pyrazine-8-carboxamide] | 100 to 1000 nM |
| CC(C)N(Cc1ccc(-c2cnn(-c3cccnc3)c2)cc1F)C(=O)c1cc2c(cc1F)nc(N)c1cncn12 [Ff-148, 4-amino-7-fluoro-N-(2-fluoro-4-(1-(pyridin-3-yl)-1H-pyrazol-4-yl)benzyl)-N-isopropylimidazo[1,5-a]quinoxaline-8-carboxamide] | < 100 nM |
